Measured values: patent US6376710B2, “Amidine compounds and their use as pesticides” (Sumitomo Chemical Co., Ltd., priority 2000, dated 2002)
Where two headings read alike, the source gives them in different places.

What was measured:
Format in all cases: in vivo
[1] = test system: house fly (Musca domeestica); experiment: Test Example 3: treated filter paper with sucrose bait, house fly female adults, mortality; details: 24 h
Procedure: On the bottom of a polyethylene cup of 5.5 cm in diameter was placed a filter paper of the same size, to which a water dilution (500 ppm) of each of the formulations obtained from present compounds 1, 2, 3, 4, 5, 6, 7, 8, 9, 10, 11, 12, 13, 14, 15, 16, 17, 18, 19, 20, 21, 25, 26, 27, 28, 29, 32, 33, 34, 35, 36, 37, 38, 39, 40, 41, 42, 43, 44, 45, 47, 51, 52, 53, 54, 55, 60, and 61 according to Formulation Example 1 was added dropwise in an amount of 0.7 ml, and the cup was uniformly charged with about 30 mg of sucrose as a bait. Ten female adults of house fly (Musca domeestica) were set free in each cup, which was then kept covered. After 1 day, their survival was examined to determine the mortality.

[2] = test system: common mosquito (Culex pipiens pallens); experiment: Test Example 4: treated water, common mosquito final-instar larvae, mortality; details: 192 h
[3] = test system: German cockroach (Blattella germanica); experiment: Test Example 2: treated filter paper with sucrose bait, German cockroach male adults, mortality; details: 144 h
[4] = water dilution (500 ppm) of flowable (Formulation Example 1), 0.7 ml on filter paper, female adults, after 1 day, read-out: mortality
[5] = active ingredient 3.5 ppm in ion-exchanged water (0.7 ml of 500 ppm dilution), final-instar larvae, after 8 days, read-out: mortality
[6] = water dilution (500 ppm) of flowable (Formulation Example 1), 0.7 ml on filter paper, male adults, after 6 days, read-out: mortality

NC(=Nc1c([N+](=O)[O-])cc(C(F)(F)C(F)(F)F)cc1[N+](=O)[O-])C(F)(F)C(F)(F)F [present compound 43, N-(2,6-Dinitro-4-pentafluoroethylphenyl)-2,2,3,3,3-pentafluoropropionamidine]
100%: mortality at 500 µg/mL [1] | mortality at 3.5 ppm [2] | mortality at 500 µg/mL [3]

CN(C)C(=Nc1c(Cl)cc(C(F)(F)F)cc1Cl)C(F)(F)Cl [present compound 54, 2-Chloro-N′-(2,6-dichloro-4-trifluoromethylphenyl)-2,2-difluoro-N,N-dimethylacetamidine]
100%: mortality at 500 µg/mL [1] | mortality at 3.5 ppm [2] | mortality at 500 µg/mL [3]

NC(=Nc1c([N+](=O)[O-])cc(C(F)(F)F)cc1[N+](=O)[O-])C(F)(Br)C(F)(F)F (stereo not drawn) [present compound 29, 2-Bromo-N-(2,6-dinitro-4-trifluoromethylphenyl)-2,3,3,3-tetrafluoropropionamidine]
100%: mortality at 500 µg/mL [1] | mortality at 3.5 ppm [2] | mortality at 500 µg/mL [3]

NC(=Nc1c(F)cc(C(F)(F)F)cc1Cl)C(F)(F)F [present compound 13, N-(2-Chloro-6-fluoro-4-trifluoromethylphenyl)-2,2,2-trifluoroacetamidine]
100%: mortality at 500 µg/mL [1] | mortality at 3.5 ppm [2] | mortality at 500 µg/mL [3]

NC(=Nc1c([N+](=O)[O-])cc(C(F)(F)F)cc1[N+](=O)[O-])C(F)(F)C(F)(F)F [present compound 6, N-(2,6-Dinitro-4-trifluoromethylphenyl)-2,2,3,3,3-pentafluoropropionamidine]
100%: mortality at 500 µg/mL [1] | mortality at 3.5 ppm [2] | mortality at 500 µg/mL [3]

NC(=Nc1c([N+](=O)[O-])cc(C(F)(F)C(F)(F)F)cc1[N+](=O)[O-])C(F)(F)C(F)(F)C(F)(F)F [present compound 42, N-(2,6-Dinitro-4-pentafluoroethylphenyl)-2,2,3,3,4,4,4-heptafluorobutyramidine]
100%: mortality at 500 µg/mL [1] | mortality at 3.5 ppm [2] | mortality at 500 µg/mL [3]

NC(=Nc1c([N+](=O)[O-])cc(C(F)(F)F)cc1[N+](=O)[O-])C(F)(F)Cl [present compound 28, 2-Chloro-2,2-difluoro-N-(2,6-dinitro-4-trifluoromethylphenyl)acetamidine]
100%: mortality at 500 µg/mL [1] | mortality at 3.5 ppm [2] | mortality at 500 µg/mL [3]

NC(=Nc1c(Br)cc(OC(F)(F)F)cc1Br)C(F)(F)C(F)(F)F [present compound 16, N-(2,6-Dibromo-4-trifluoromethoxyphenyl)-2,2,3,3,3-pentafluoropropionamidine]
100%: mortality at 500 µg/mL [1] | mortality at 3.5 ppm [2] | mortality at 500 µg/mL [3]

N#Cc1cc(C(F)(F)F)cc(Cl)c1N=C(N)C(F)(F)C(F)(F)F [present compound 14, N-(2-Chloro-6-cyano-4-trifluoromethylphenyl)-2,2,3,3,3-pentafluoropropionamidine]
100%: mortality at 500 µg/mL [1] | mortality at 3.5 ppm [2] | mortality at 500 µg/mL [3]

CNC(=Nc1c(Cl)cc(C(F)(F)F)cc1Cl)C(F)(F)F [present compound 55, N′-(2,6-Dichloro-4-trifluoromethylphenyl)-2,2,2-trifluoro-N-methylacetamidine]
100%: mortality at 500 µg/mL [1] | mortality at 3.5 ppm [2] | mortality at 500 µg/mL [3]

CC(=O)NC(=Nc1c(Cl)cc(C(F)(F)F)cc1Cl)C(F)(F)C(F)(F)F [present compound 61, N-[1-(2,6-dichloro-4-trifluoromethylphenylimino)-2,2,3,3,3-pentafluoropropyl]-acetamide]
100%: mortality at 500 µg/mL [1] | mortality at 3.5 ppm [2] | mortality at 500 µg/mL [3]

CC(F)(F)C(N)=Nc1c([N+](=O)[O-])cc(C(F)(F)F)cc1[N+](=O)[O-] [present compound 36, 2,2-Difluoro-N-(2,6-dinitro-4-trifluoromethylphenyl)propionamidine]
100%: mortality at 500 µg/mL [1] | mortality at 3.5 ppm [2] | mortality at 500 µg/mL [3]

NC(=Nc1c(Br)cc(C(F)(F)F)cc1[N+](=O)[O-])C(F)(F)C(F)(F)F [present compound 27, N-(2-Bromo-6-nitro-4-trifluoromethylphenyl)-2,2,3,3,3-pentafluoropropionamidine]
100%: mortality at 500 µg/mL [1] | mortality at 3.5 ppm [2] | mortality at 500 µg/mL [3]

NC(=Nc1c([N+](=O)[O-])cc(C(F)(F)F)cc1[N+](=O)[O-])C(F)(F)Br [present compound 25, 2-Bromo-2,2-difluoro-N-(2,6-dinitro-4-trifluoromethylphenyl) acetamidine]
100%: mortality at 500 µg/mL [1] | mortality at 3.5 ppm [2] | mortality at 500 µg/mL [3]

NC(=Nc1c(Br)cc(C(F)(F)F)cc1Br)C(F)(F)C(F)(F)F [present compound 17, N-(2,6-Dibromo-4-trifluoromethylphenyl)-2,2,3,3,3-pentafluoropropionamidine]
100%: mortality at 500 µg/mL [1] | mortality at 3.5 ppm [2] | mortality at 500 µg/mL [3]

NC(=Nc1c([N+](=O)[O-])cc(C(F)(F)F)cc1[N+](=O)[O-])C(F)(F)C(F)(F)C(F)(F)C(F)F [present compound 38, N-(2,6-Dinitro-4-trifluoromethylphenyl)-2,2,3,3,4,4,5,5-octafluoropentanamidine]
100%: mortality at 500 µg/mL [1] | mortality at 3.5 ppm [2] | mortality at 500 µg/mL [3]

NC(=Nc1c(Cl)cc(C(F)(F)F)cc1Cl)C(F)(F)F [present compound 3, N-(2,6-Dichloro-4-trifluoromethylphenyl)-2,2,2-trifluoroacetamidine]
100%: mortality at 500 µg/mL [1] | mortality at 3.5 ppm [2] | mortality at 500 µg/mL [3]

COC(F)(C(N)=Nc1c([N+](=O)[O-])cc(C(F)(F)F)cc1[N+](=O)[O-])C(F)(F)F (stereo not drawn) [present compound 41, N-(2,6-Dinitro-4-trifluoromethylphenyl)-2-methoxy-2,3,3,3-tetrafluoropropionamidine]
100%: mortality at 500 µg/mL [1] | mortality at 3.5 ppm [2] | mortality at 500 µg/mL [3]

NC(=Nc1c(Cl)cc(C(F)(F)F)cc1Cl)C(F)(F)C(F)(F)F [present compound 4, N-(2,6-dichloro-4-trifluoromethylphenyl)-2,2,3,3,3-pentafluoropropionamidine]
100%: mortality at 500 µg/mL [1] | mortality at 3.5 ppm [2] | mortality at 500 µg/mL [3]

NC(=Nc1c([N+](=O)[O-])cc(C(F)(F)C(F)(F)C(F)(F)F)cc1[N+](=O)[O-])C(F)(F)C(F)(F)F [present compound 47, N-(2,6-Dinitro-4-heptafluoropropylphenyl)-2,2,3,3,3-pentafluoropropionamidine]
100%: mortality at 500 µg/mL [1] | mortality at 3.5 ppm [2] | mortality at 500 µg/mL [3]

CSC(F)(F)C(N)=Nc1c([N+](=O)[O-])cc(C(F)(F)F)cc1[N+](=O)[O-] [present compound 51, N-(2,6-Dinitro-4-trifluoromethylphenyl)-2,2-difluoro-2-methylthioacetamidine]
100%: mortality at 500 µg/mL [1] | mortality at 3.5 ppm [2] | mortality at 500 µg/mL [3]

NC(=Nc1c(Cl)cc(C(F)(F)F)cc1Cl)C(F)(F)C(F)(F)C(F)(F)F [present compound 11, N-(2,6-Dichloro-4-trifluoromethylphenyl)-2,2,3,3,4,4,4-heptafluorobutyramidine]
100%: mortality at 500 µg/mL [1, 4] | mortality at 3.5 ppm [2, 5] | mortality at 500 µg/mL [3, 6]

NC(=Nc1c(Cl)cc(C(F)(F)F)cc1[N+](=O)[O-])C(F)(F)C(F)(F)C(F)(F)F [present compound 32, N-(2-Chloro-6-nitro-4-trifluoromethylphenyl)-2,2,3,3,4,4,4-heptafluorobutyramidine]
100%: mortality at 500 µg/mL [1, 4] | mortality at 3.5 ppm [2, 5] | mortality at 500 µg/mL [3, 6]

NC(=Nc1c([N+](=O)[O-])cc(C(F)(F)F)cc1[N+](=O)[O-])C(F)(F)C(F)(F)Cl [present compound 35, 3-Chloro-N-(2,6-dinitro-4-trifluoromethylphenyl)-2,2,3,3-tetrafluoropropionamidine]
100%: mortality at 500 µg/mL [1] | mortality at 3.5 ppm [2] | mortality at 500 µg/mL [3]

NC(=Nc1c([N+](=O)[O-])cc(C(F)(F)F)cc1[N+](=O)[O-])C(F)(F)C(F)F [present compound 26, N-(2,6-Dinitro-4-trifluoromethylphenyl)-2,2,3,3-tetrafluoropropionamidine]
100%: mortality at 500 µg/mL [1] | mortality at 3.5 ppm [2] | mortality at 500 µg/mL [3]

NC(=Nc1c(F)cc(C(F)(F)F)cc1F)C(F)(F)C(F)(F)F [present compound 9, N-(2,6-Difluoro-4-trifluoromethylphenyl)-2,2,3,3,3-pentafluoropropionamidine]
100%: mortality at 500 µg/mL [1] | mortality at 3.5 ppm [2] | mortality at 500 µg/mL [3]

NC(=Nc1c(Cl)cc(C(F)(F)F)cc1Cl)C(F)(F)Cl [present compound 5, 2-Chloro-N-(2,6-dichloro-4-trifluoromethylphenyl)-2,2-difluoroacetamidine]
100%: mortality at 500 µg/mL [1] | mortality at 3.5 ppm [2] | mortality at 500 µg/mL [3]
